Assay results reported in patent US6887902B2, “Anti-inflammatory method using gamma-aminobutyric acid (GABA) analogs” (Warner-Lambert Company, priority 1997, dated 2005).

How the values were obtained:
[1] = test system: kaolin and carrageenan knee joint arthritis; assay: acute experimental arthritis by kaolin and carrageenan in the knee joint, spinal infusion of pregabalin or its R-isomer; conditions: for PWL (thermal paw withdrawal latency) compared to baseline: 10 mg/mL infused into dorsal horn alone, before induction of arthritis; for thermal hyperalgesia (PWL) at 5.5 hours: 0.9 mg/mL infused into dorsal horn after development of arthritis; for PWL after infusion: 10 mg/mL infused after inflammation of the knee joint; for spontaneous pain (paw posture): both doses (0.9 and 10 mg/mL); for secondary thermal hyperalgesia (PWL) / abnormal paw posture indicative of spontaneous pain / reduction of knee joint swelling compared to aCSF rats: pre-treatment; for secondary thermal hyperalgesia (PWL): 10 mg/mL spinal infusion for 1.5 hours before kaolin and carrageenan, 4 hours post-injection; for abnormal paw posture indicative of spontaneous pain: spinal infusion before induction of arthritis; for reduction of knee joint swelling compared to aCSF rats: spinal infusion for 1.5 hours before induction of arthritis, P<0.05
Protocol: Acute experimental arthritis was induced in rats by injection of kaolin and carrageenan into the knee joint. […] Concomitant with the injury to the joint tissue, both peripheral and central sensitization occurs, which is manifested in the awake rat as hyperalgesia, which can be easily quantified by measuring a reduction in paw withdrawal latencies to a radiant heat source. Both pregabalin and its R-stereoisomer (R-(−)-3-IBG) were administered before inflammation was induced, and after the inflammation was developed.
Thirty-six male Sprague-Dawley rats (235-380 g) were anesthetized with sodium pentobarbital (Nembutal; 50 mg/kg^−1 i.p.). A microdialysis fiber (200 μm o.d., 45000 MW Cut-off, Hospal AN69) was coated with epoxy resin, except for a 2 mm section. A small midline incision was made in the back at the level of the last rib. The muscle was then removed from around the T12 vertebra and a hole drilled in both lateral aspects. The microdialysis fiber was then passed transversely through the dorsal horn of the spinal cord between lumbar segments L4-L6 so that the permeable 2 mm of the fiber lay in the dorsal horn. The microdialysis fiber was connected to PE20 tubing (Becton and Dickson) which was then tunneled under the skin to the nape of the neck. The fiber was stabilized with dental cement. Artificial cerebrospinal fluid (aCSF) was pumped through the tubing at a rate of 5 μL/min for 1 hour before the PE20 was sealed and the animals allowed to recover.
As a measure of thermal hyperalgesia, animals were tested for paw withdrawal to radiant heat. On the day following fiber placement, animals were housed in small lucite cubicles on an elevated glass plate. Radiant heat was applied to the plantar surface of the heel of the hindpaw until the rat lifted the paw. The time at which this occurred was considered the paw withdrawal latency (PWL). Both paws were tested independently at 5-minute intervals, for a total of 5 trials. A mean of these five readings was used as the PWL. […] PWL was measured for a final time 4 hours after arthritis induction. In the post-treatment group, the animals were tested before induction of arthritis in the knee joint (control), 4-hours post-induction, and 1.5 hours after of drug infusion, i.e. 5.5 hours after arthritis induction. A decrease in the PWL to radiant heat in an animal with knee joint inflammation is indicative of secondary hyperalgesia.
The circumference of the knee joint was also measured before injection of kaolin and carrageenan (control) using a flexible tape measure. The extent of guarding of the hindpaw was also noted after arthritis was induced. To quantify these changes, the animals were graded by a subjective pain rating scale (0-5), where: 0 is normal; 1 is curling of the toes; 2 is eversion of the paw; 3 is partial weight bearing; 4 is non-weight bearing and guarding; and 5 is avoidance of any contact with the hindlimb.
Rats were anesthetized briefly with sodium methohexital (Brevital; 60 mg/kg^−1 i.p.) after the control behavioral test (post-treatment group) or after infusion of the drug (pre-treatment group). The knee joint was then injected with 3% kaolin and 3% carrageenan suspended in sterile saline (0.1 mL; pH 7.4). The knee joint was then flexed manually until the rat awoke (approximately 5 minutes).
All GABA analogs were dissolved in an artificial cerebral spinal fluid solution (aCSF) (pH 7.4, adjusted by bubbling with 95% CO2/5% O2) and infused through the spinal cord at 5 μL/min^−1. The animals received either pregabalin, R-(−)-3-IBG, or aCSF.

[2] = test system: SCW (PG-PS) induced reactivation arthritis, ankle swelling; assay: streptococcal cell wall (SCW) induced reactivation arthritis assay; format: in vivo, Female Lewis rats
Protocol: The assay is a streptococcal cell wall (SCW) induced reactivation arthritis assay. Female Lewis rats were injected intra-articularly with 10 μL of 100 p fraction peptidoglyean polysaccharide (PG-PS) suspended in phosphate buffered saline (PBS). The contralateral joints were injected with PBS as control. Systemic challenge with 100 μg of PG-PS was given via the tail vein 21 days after the initial inoculation. The animals were dosed orally three times a day with pregabalin (3, 10, and 30 mg/kg) on a 12-hour cycle for 72 hours. The first dose was given 1 hour before the systemic challenge.
The volume of the ankles increased by about 0.5 mL within 72 hours. Pregabalin at 10 and 30 mg/kg dose dependently attenuated the increase in edema up to 40% during the 72-hour observation period.

| SMILES | PWL (thermal paw withdrawal latency) compared to baseline [1] | thermal hyperalgesia (PWL) at 5.5 hours ([1]; post-treatment) | PWL after infusion ([1]; post-treatment) | spontaneous pain (paw posture) ([1]; post-treatment) | secondary thermal hyperalgesia (PWL) [1] | abnormal paw posture indicative of spontaneous pain [1] | reduction of knee joint swelling compared to aCSF rats [1] | comparison of the isomers in reducing thermal hyperalgesia ([1]; post-treatment, spinal infusion) | attenuation of the increase in edema ([2]; 10 and 30 mg/kg oral, dose dependent, 72-hour observation period) | Swelling (delta edema, mL) ([2]; Day 22, pregabalin oral 3.0 mg/kg, vehicle group 0.20) | Swelling (delta edema, mL) ([2]; Day 22, pregabalin oral 10.0 mg/kg, vehicle group 0.20) | Swelling (delta edema, mL) ([2]; Day 22, pregabalin oral 30.0 mg/kg, vehicle group 0.20) | Swelling (delta edema, mL) ([2]; Day 23, pregabalin oral 3.0 mg/kg, vehicle group 0.45) | Swelling (delta edema, mL) ([2]; Day 23, pregabalin oral 10.0 mg/kg, vehicle group 0.45) | Swelling (delta edema, mL) ([2]; Day 23, pregabalin oral 30.0 mg/kg, vehicle group 0.45) | Swelling (delta edema, mL) ([2]; Day 24, pregabalin oral 3.0 mg/kg, vehicle group 0.50) | Swelling (delta edema, mL) ([2]; Day 24, pregabalin oral 10.0 mg/kg, vehicle group 0.50) | Swelling (delta edema, mL) ([2]; Day 24, pregabalin oral 30.0 mg/kg, vehicle group 0.50) |
| --- | --- | --- | --- | --- | --- | --- | --- | --- | --- | --- | --- | --- | --- | --- | --- | --- | --- | --- |
| CC(C)C[C@@H](CN)CC(=O)O [R-(−)-3-IBG] | did not change PWL | reduced the thermal hyperalgesia | return of the PWL to the control value | spontaneous pain was also reduced | no secondary thermal hyperalgesia was observed | prevented the development of abnormal paw posture | approximately 30% |  |  |  |  |  |  |  |  |  |  |  |
| CC(C)C[C@H](CN)CC(=O)O [Pregabalin, (S)-3-(aminomethyl)-5-methylhexanoic acid] | did not change PWL | reduced the thermal hyperalgesia | return of the PWL to the control value | spontaneous pain was also reduced | no secondary thermal hyperalgesia was observed | prevented the development of abnormal paw posture | approximately 30% | more effective in reducing thermal hyperalgesia than its R-isomer | up to 40% | 0.12 mL | 0.04 mL | 0.06 mL | 0.38 mL | 0.25 mL | 0.20 mL | 0.50 mL | 0.31 mL | 0.21 mL |
